# Where two headings read alike, the source gives them in different places.
# How the values were obtained:
# [1] = In vivo toxicity, repeat oral dose; parameters: species or system BALB/c mice; conditions: for mortality: group of three mice
# Method: In preliminary repeat dose studies, a suspension of C1 in polyethylene glycol (C1 is mixed with a 2.5% solution of polyethylene glycol and homogenized in a sterile dounce homogenizer until it flows freely through a 22×11/2" with 11/4 mm ball feeding needle) was administered orally to a group of three BALB/c mice.
# [2] = tested on: MCF-7 human breast cancer cells; assay: Cytotoxicity for breast cancer cell line MCF-7 (MTT assay); format: cell-based; conditions: read-out: Percent cell kill; for cytotoxicity at 50 µg/mL: 50 μg/ml; for cytotoxicity at 100 µg/mL: 100 μg/ml; for cytotoxicity at 150 µg/mL: 150 μg/ml
# Method: (§1) In the following examples, tumor cells were treated with varying concentrations of compounds C1, C2, C4 or C5 dissolved in absolute ethanol. To limit any non-specific toxicity, the final concentration of ethanol was not allowed to exceed 0.5%. Stock concentrations of 5 mg/ml or 20 mg/ml were used. Viability of cells was determined in some studies by the trypan blue dye exclusion method. In other studies, cell viability/proliferation activity was determined by MTT assay by using a kit obtained from Promega, (Promega Corp., Madison, Wis. 53711). For this assay, a 100 μl cell suspension containing 5-10^3 monolayer cells or 1×10^5 suspension cells was placed in the wells of a 96-well microtiter plate. After overnight incubation, cells were treated with different concentrations of the test compound. Control wells received vehicle only. After 24, 48, 72 or 96 h of incubation, 50 μl of MTT dye solution was added. After 4 h of incubation at 37° C., 100 μl of solubilization/stop solution was added. After another h of incubation, cells were mixed using a multi-channel pipet and the absorption of the dye color was recorded at 570 nm using a plate reading absorption spectrophotometer.
# (§2) After the incubation period, viability of the cells was determined by MTT assay (Promega Corp., Madison, Wis. 53711).
# [3] = tested on: DU-145 human prostate cancer cells; assay: Cytotoxicity for prostate cancer cell line DU-145 (MTT assay); format: cell-based; conditions: read-out: Percent cell kill; for cytotoxicity at 50 µg/mL: 50 μg/ml; for cytotoxicity at 100 µg/mL: 100 μg/ml; for cytotoxicity at 150 µg/mL: 150 μg/ml
# Method: as §1, §2
# [4] = tested on: L1210 mouse leukemia cells; assay: Cytotoxicity for leukemia cells (L1210); format: cell-based; conditions: for cytotoxicity at 50 µg/mL / cytotoxicity at 110 µg/mL / cytotoxicity at 150 µg/mL: Mus musculus; for cytotoxicity at 50 µg/mL: 50 μg/ml; for cytotoxicity at 110 µg/mL: 110 μg/ml; for cytotoxicity at 150 µg/mL: 150 μg/ml
# Method: as §1
# The viability of the cells was […]
# [5] = tested on: BT-20 human breast cancer cells; assay: Cytotoxicity for breast cancer cell line BT-20 (MTT assay); format: cell-based; conditions: read-out: Percent cell kill; for cytotoxicity at 50 µg/mL: 50 μg/ml; for cytotoxicity at 100 µg/mL: 100 μg/ml; for cytotoxicity at 150 µg/mL: 150 μg/ml
# Method: as §1, §2
# [6] = In vivo toxicity, single escalating oral dose; conditions: BALB/c mice
# Method: A single escalating dose of the test drag is a procedure where a dose is administered to a group of mice (in this case n=3). If toxicity is not elicited, the next higher dose is given to a fresh group of mice and so on until toxicity is observed.
# [7] = tested on: human immunodeficiency virus (HIV-1); assay: Inactivation of cell free HIV-1 (MT-4 indicator cells); format: cell-based; conditions: 2 h treatment, MT-4 + HIV-1, day 7
# Method: After 2 h at 37° C., treated and control HIV-1 samples were added to the indicator MT-4 cells (cultured human T cells) in the presence of 2 μg/ml POLYBRENE™ for 2 h. After washing, MT-4 cells were cultured in the presence of drug-treated or control (untreated) HIV-1. Cell viability of MT-4 cells was determined by the trypan blue dye exclusion method.
# [8] = tested on: Daudi human lymphoma cells; assay: Cytotoxicity for lymphoma cells (Daudi); format: cell-based; conditions: for cytotoxicity at 50 µg/mL / cytotoxicity at 100 µg/mL / cytotoxicity at 150 µg/mL: Homo sapiens, Daudi; for cytotoxicity at 50 µg/mL: 50 μg/ml; for cytotoxicity at 100 µg/mL: 100 μg/ml; for cytotoxicity at 150 µg/mL: 150 μg/ml, read-out: % Cytotoxicity
# Method: as §1
# The viability of the cells was
# Compounds C4 and C5 were also tested for toxicity against human lymphoma Daudi cells.
# [9] = tested on: PC-3 human prostate cancer cells; assay: Cytotoxicity for prostate cancer cell line PC-3 (MTT assay); format: cell-based; conditions: read-out: Percent cell kill; for cytotoxicity at 50 µg/mL: 50 μg/ml; for cytotoxicity at 100 µg/mL: 100 μg/ml; for cytotoxicity at 150 µg/mL: 150 μg/ml
# Method: as §1, §2
# [10] = 48 h, all concentrations tested
smiles,measurement,setting,value
"CCCCN1C(=O)CC(=O)N(CCCC)C1=S [Compound C1, 4,6(1H, 5H)-pyrimidinedione, 1,3-dibutyldihydro-2-thioxo]",tolerability and survival,"[1]; 400 mg/kg daily oral, 10 days",easily tolerated and all animals survived the treatment
same,mortality,[1]; 800 mg/kg daily oral,one animal died on day three and another died on day 10
same,mortality,[1]; 1000 mg/kg daily oral,"one animal died on day 2, another on day 5 and a third animal died on day 10"
same,mortality,[1]; 1200 mg/kg daily oral,all animals died on day 3
same,cytotoxicity at 50 µg/mL,"[2]; MCF7, 24 h, 24 hr",39.5 ± 10.5%
same,cytotoxicity at 100 µg/mL,"[2]; MCF7, 24 h, 24 hr",57.3 ± 1.5%
same,cytotoxicity at 150 µg/mL,"[2]; MCF7, 24 h, 24 hr",87.8 ± 8.8%
same,cytotoxicity at 50 µg/mL,"[2]; MCF7, 48 h, 48 hr",67.5 ± 5.3%
same,cytotoxicity at 100 µg/mL,"[2]; MCF7, 48 h, 48 hr",92.8 ± 4.9%
same,cytotoxicity at 150 µg/mL,"[2]; MCF7, 48 h, 48 hr",92.3 ± 5.3%
same,cytotoxicity at 50 µg/mL,"[2]; MCF7, 72 h, 72 hr",85.8 ± 3.8%
same,cytotoxicity at 100 µg/mL,"[2]; MCF7, 72 h, 72 hr",88 ± 5.4%
same,cytotoxicity at 150 µg/mL,"[2]; MCF7, 72 h, 72 hr",84.5 ± 5.1%
same,cytotoxicity at 50 µg/mL,"[2]; MCF7, 96 h, 96 hr",97.8 ± 1.7%
same,cytotoxicity at 100 µg/mL,"[2]; MCF7, 96 h, 96 hr",97.8 ± 1.7%
same,cytotoxicity at 150 µg/mL,"[2]; MCF7, 96 h, 96 hr",96.5 ± 2.5%
same,cytotoxicity at 50 µg/mL,"[3]; DU-145, 24 h, 24 hr",0%
same,cytotoxicity at 100 µg/mL,"[3]; DU-145, 24 h, 24 hr",27.5 ± 6.4%
same,cytotoxicity at 150 µg/mL,"[3]; DU-145, 24 h, 24 hr",43 ± 2.9%
same,cytotoxicity at 50 µg/mL,"[3]; DU-145, 48 h, 48 hr",0%
same,cytotoxicity at 100 µg/mL,"[3]; DU-145, 48 h, 48 hr",52.2 ± 3.4%
same,cytotoxicity at 150 µg/mL,"[3]; DU-145, 48 h, 48 hr",71 ± 7.3%
same,cytotoxicity at 50 µg/mL,"[3]; DU-145, 72 h, 72 hr",23.5 ± 4.5%
same,cytotoxicity at 100 µg/mL,"[3]; DU-145, 72 h, 72 hr",58.7 ± 2.1%
same,cytotoxicity at 150 µg/mL,"[3]; DU-145, 72 h, 72 hr",78.7 ± 3.4%
same,cytotoxicity at 50 µg/mL,"[3]; DU-145, 96 h, 96 hr",26.2 ± 5.5%
same,cytotoxicity at 100 µg/mL,"[3]; DU-145, 96 h, 96 hr",64 ± 4.2%
same,cytotoxicity at 150 µg/mL,"[3]; DU-145, 96 h, 96 hr",82.5 ± 3.7%
same,killing of cells,[4]; [10],over 99%
same,cytotoxicity at 50 µg/mL,"[4]; L1210, 24 h, 24 hr",81.2 ± 4.3%
same,cytotoxicity at 110 µg/mL,"[4]; L1210, 24 h, 24 hr",93.5 ± 3.1%
same,cytotoxicity at 150 µg/mL,"[4]; L1210, 24 h, 24 hr",89.2 ± 3.2%
same,cytotoxicity at 50 µg/mL,"[4]; L1210, 48 h, 48 hr",99%
same,cytotoxicity at 110 µg/mL,"[4]; L1210, 48 h, 48 hr, read-out: % Cytotoxicity",99.9%
same,cytotoxicity at 150 µg/mL,"[4]; L1210, 48 h, 48 hr",99.9%
same,cytotoxicity at 50 µg/mL,"[5]; BT-20, 24 h, 24 hr",43.3 ± 4.1%
same,cytotoxicity at 100 µg/mL,"[5]; BT-20, 24 h, 24 hr",62 ± 7.9%
same,cytotoxicity at 150 µg/mL,"[5]; BT-20, 24 h, 24 hr",94 ± 4.2%
same,cytotoxicity at 50 µg/mL,"[5]; BT-20, 48 h, 48 hr",65.5 ± 2.4%
same,cytotoxicity at 100 µg/mL,"[5]; BT-20, 48 h, 48 hr",91.3 ± 2.5%
same,cytotoxicity at 150 µg/mL,"[5]; BT-20, 48 h, 48 hr",96.5 ± 2.4%
same,cytotoxicity at 50 µg/mL,"[5]; BT-20, 72 h, 72 hr",73.3 ± 2.9%
same,cytotoxicity at 100 µg/mL,"[5]; BT-20, 72 h, 72 hr",86.8 ± 3.6%
same,cytotoxicity at 150 µg/mL,"[5]; BT-20, 72 h, 72 hr",86 ± 3.6%
same,cytotoxicity at 50 µg/mL,"[5]; BT-20, 96 h, 96 hr",100%
same,cytotoxicity at 100 µg/mL,"[5]; BT-20, 96 h, 96 hr",100%
same,cytotoxicity at 150 µg/mL,"[5]; BT-20, 96 h, 96 hr",100%
same,lethal single dose,[6],2000 mg/kg
same,MTD,"[6]; mouse, in vivo, read-out: single dose easily tolerated",≥ 1200 mg/kg
same,% Inactivation Day 7,[7]; 125 μg/ml,62%
same,killing at 75 µg/mL,"[7]; Human immunodeficiency virus 1, 168 h, 75 μg/ml",7.7%
same,killing at 100 µg/mL,"[7]; Human immunodeficiency virus 1, 168 h, 100 μg/ml",34.1%
same,killing at 125 µg/mL,"[7]; Human immunodeficiency virus 1, 168 h, 125 μg/ml",62.6%
same,killing of cells,[8]; [10],over 99%
same,cytotoxicity at 50 µg/mL,[8]; 24 h,91.3 ± 4.6%
same,cytotoxicity at 100 µg/mL,[8]; 24 h,93.3 ± 4.9%
same,cytotoxicity at 150 µg/mL,"[8]; 24 h, 24 hr",94 ± 4.9%
same,cytotoxicity at 50 µg/mL,[8]; 48 h,99.9%
same,cytotoxicity at 100 µg/mL,[8]; 48 h,99.9%
same,cytotoxicity at 150 µg/mL,"[8]; 48 h, 48 hr",99.9%
same,cytotoxicity at 50 µg/mL,"[9]; 24 h, 24 hr",61.7 ± 10%
same,cytotoxicity at 100 µg/mL,"[9]; 24 h, 24 hr",88.7 ± 5.5%
same,cytotoxicity at 150 µg/mL,"[9]; 24 h, 24 hr",90.5 ± 7.1%
same,cytotoxicity at 50 µg/mL,"[9]; 48 h, 48 hr",91 ± 3.6%
same,cytotoxicity at 100 µg/mL,"[9]; 48 h, 48 hr",92.7 ± 1.2%
same,cytotoxicity at 150 µg/mL,"[9]; 48 h, 48 hr",94.9 ± 5.3%
same,cytotoxicity at 50 µg/mL,"[9]; 72 h, 72 hr",100%
same,cytotoxicity at 100 µg/mL,"[9]; 72 h, 72 hr",100%
same,cytotoxicity at 150 µg/mL,"[9]; 72 h, 72 hr",100%
same,cytotoxicity at 50 µg/mL,"[9]; 96 h, 96 hr",100%
same,cytotoxicity at 100 µg/mL,"[9]; 96 h, 96 hr",100%
same,cytotoxicity at 150 µg/mL,"[9]; 96 h, 96 hr",> 96%

# — patent US5869494A, “Uses for barbituric acid analogs” (priority 1997, dated 1999)
